Results as given in patent publication US20250221405A1, “ROOT NODULE FORMATION-PROMOTING COMPOSITION, AND ROOT HAIR FORMATION-PROMOTING COMPOSITION” (KANEKA CORPORATION, priority 2022, published 2025).

Columns and labels:
[1] = tested on: soybeans (Fukuyutaka); assay: Experimental Example 3: seed coating with biosurfactant and/or KVP, number of root nodules; assay type: in vivo, soybean; settings: Table 3-1
Description: A solution of SF, SL, or RL and/or KVP dissolved in water (a composition for promoting root nodule formation) as the following amount in each of the following treatments was prepared. The seeds of soybeans (Fukuyutaka) were coated using the solution in an amount of 800 μL/100 g seed to obtain coated seeds.
A 9 cm poly pot was filled with culture soil and seeded with three coated seeds in each pot.
After seeding, the coated seeds were cultivated in a greenhouse set at 28° C. during the day (14h) and 18° C. at night (10h).
Seven days after the seeding, the soybeans in each pot were thinned to one plant, and each pot was irrigated with 4.3 mL of a mixture of rhizobium materials (rhizobium and azospirillum) mixed with water at a proportion of 10 g/L.
Twenty-one days after the irrigation, the roots were washed with water so as not to remove root nodules, the culture soil was removed, and then, the root nodules formed on the roots were collected.
After the seeding, each pot was fertilized with ½ Hoagland solution (50 mL) once a week. In addition, experiments were conducted on eight pots (eight plants) in each treatment.
A plurality of experiments were conducted by changing the type of the composition for promoting root nodule formation and the like. Tables 3-1 and 3-2 show the amounts of SF, SL, or RL and/or KVP in the composition for promoting root nodule formation and the investigation result of the number of root nodules. Note that the number of root nodules is indicated by a relative value with Tl taken as 100, with a numerical value in parentheses indicating the average number of root nodules actually measured (pieces/plant).

[2] = tested on: Japanese mustard spinach (Haru no Senbatsu); assay: Experimental Example 6: SF in agar medium, microscopic observation of root hair; assay type: in vivo; parameters: key: those with a significant root hair increase observed were evaluated as AA; those with a root hair increase observed were evaluated as BB; those with no root hair increase observed were evaluated as CC; those with an overall or partial root hair decrease observed were evaluated as DD; settings: Table 10, eight days after seeding
Description: An observation tank (a composition for promoting root hair formation) formed by adding 1% SF aqueous solution to ½ MS agar medium (0.8% agar) so as to obtain the following dilution factor was prepared in an acrylic tank. Japanese mustard spinach (Haru no Senbatsu) was seeded near the surface of the observation tank.
After seeding, the Japanese mustard spinach was cultivated in an incubator set in a light period (6:00-18:00, temperature 26° C., illuminance 120 μmol/m^2·s) and a dark period (18:00-6:00, temperature 18° C.).
Eight days after the seeding, the amount of root hair at a point of 1 cm from the tip of the roots was observed under a microscope (microscopic observation). In the T1 (Control), ½ MS agar medium without mixing 1% SF aqueous solution in the medium was used as the observation tank.
As a result of the observation, compared with the T1, those with a significant root hair increase observed were evaluated as AA, those with a root hair increase observed were evaluated as BB, those with no root hair increase observed were evaluated as CC, and those with an overall or partial root hair decrease observed were evaluated as DD.
A plurality of experiments were conducted by changing the date of seeding, the date of observation, and the type of the composition for promoting root hair formation and the like. […]

[3] = seed coating SF 0.5 g/t seed (diluted 16000 times)
[4] = seed coating SF 5 g/t seed (diluted 1600 times)

Substance: surfactin Na [SF]
- Number of Root Nodules, average number actually measured [1, 3]: 25.3 pieces/plant
- Number of Root Nodules, relative value with T1 taken as 100 [1, 3]: 109
- Number of Root Nodules, average number actually measured [1, 4]: 26.9 pieces/plant
- Number of Root Nodules, relative value with T1 taken as 100 [1, 4]: 116
- Observation Result (root hair) ([2]; agar medium with SF diluted 5000 times): AA
- Observation Result (root hair) ([2]; agar medium with SF diluted 10000 times): BB
